Here are results for 21 compounds from patent US20090209528A1, “SUBSTITUTED TETRAHYDROISOQUINOLINE COMPOUND, THEIR PREPARATION AND USE IN MEDICAMENTS” (LABORATORIOS DEL DR. ESTEVE S.A., priority 2006, published 2009).

Molecules are shown by their SMILES. Counter-ions that a name gives are not always drawn.

In this experiment the target is T1, 5HT6-human recombinant receptor (Homo sapiens, UniProt P50406).
T1 construct: purchased Receptor Biology; host or cells: HEK-293 cell membranes
Briefly: Binding to serotonin receptor 5-HT6 ([3H]-LSD displacement). The following applies: radioligand [3H]-LSD 2.7 nM; for inhibition at 0.01 µM / inhibition at 0.1 µM: 1 h; for inhibition at 0.01 µM: compound at 10 nM; for inhibition at 0.1 µM: compound at 100 nM; for Ki: membranes of HEK-293 cells expressing the receptor, 60 min, 37° C. Here is the method:
Cell membranes of HEK-293 cells expressing the 5HT6-human recombinant receptor were supplied by Receptor Biology. In said membranes the receptor concentration is 2.18 pmol/mg protein and the protein concentration is 9.17 mg/ml. The experimental protocol follows the method of B. L. Roth et al. [B. L. Roth, S. C. Craigo, M. S. Choudhary, A. Uluer, F. J. Monsma, Y. Shen, H. Y. Meltzer, D. R. Sibley: Binding of Typical and Atypical Antipsychotic Agents to 5-Hydroxytryptamine-6 and Hydroxytryptamine-7 Receptors. The Journal of Pharmacology and Experimental Therapeutics, 1994, 268, 1403] with the following slight changes. The respective part of the literature description is hereby incorporated by reference and forms part of the disclosure.
The commercial membrane is diluted (1:40 dilution) with the binding buffer: 50 mM Tris-HCl, 10 mM MgCl2, 0.5 mM EDTA (pH 7.4). The radioligand used is [^3H]-LSD at a concentration of 2.7 nM with a final volume of 200 μl. Incubation is initiated by adding 100 μl of membrane suspension, (≈22.9 μg membrane protein), and is prolonged for 60 minutes at a temperature of 37° C. The incubation is ended by fast filtration in a Brandel Cell Harvester through fiber glass filters made by Schleicher & Schuell GF 3362 pretreated with a solution of polyethylenimine at 0.5%. The filters are washed three times with three milliliters of buffer Tris-HCl 50 mM pH 7.4. The filters are transferred to flasks and 5 ml of Ecoscint H liquid scintillation cocktail are added to each flask. The flasks are allowed to reach equilibrium for several hours before counting with a Wallac Winspectral 1414 scintillation counter. Non-specific binding is determined in the presence of 100 μM of serotonin. Tests were made in triplicate. The inhibition constants (Ki, nM) were calculated by non-linear regression analysis using the program EBDA/LIGAND described in Munson and Rodbard, Analytical Biochemistry, 1980, 107, 220, the respective part of which is hereby incorporated by reference and forms part of the disclosure.

T1 sequence (P50406 whole entry): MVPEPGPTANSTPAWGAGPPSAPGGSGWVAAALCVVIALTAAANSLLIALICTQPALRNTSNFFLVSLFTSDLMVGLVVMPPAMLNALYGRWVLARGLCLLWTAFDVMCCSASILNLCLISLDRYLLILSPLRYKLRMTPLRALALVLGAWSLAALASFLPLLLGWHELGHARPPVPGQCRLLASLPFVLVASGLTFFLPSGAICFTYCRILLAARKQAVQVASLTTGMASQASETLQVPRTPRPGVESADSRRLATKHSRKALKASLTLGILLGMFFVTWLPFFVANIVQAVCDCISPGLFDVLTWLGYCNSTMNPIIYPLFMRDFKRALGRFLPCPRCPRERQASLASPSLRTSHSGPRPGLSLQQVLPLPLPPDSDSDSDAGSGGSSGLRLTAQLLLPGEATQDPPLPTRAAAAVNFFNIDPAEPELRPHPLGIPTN

Broadly, the inhibition is the change of the read-out against control, counted positive when it falls. The Ki is a measure of affinity in units of concentration, obtained from inhibition or displacement. With `O=S(=O)(Nc1ccc2c(c1)CCNC2)c1cccc2ccccc12` [Example 1, Naphthalene-1-sulfonic acid (1,2,3,4-tetrahydroisoquinolin-6-yl)-amide hydrochloride], the inhibition at 0.01 µM was 53.3%, the inhibition at 0.1 µM worked out at 74.8% and the inhibition constant (Ki) worked out at 13.8 nM.
Turning to `CN(c1ccc2c(c1)CC[N+](C)(C)C2)S(=O)(=O)c1cccc2ccccc12` [Example 2, 2,2-Dimethyl-6-[methyl-(naphthalene-1-sulfonyl)-amino]-1,2,3,4-tetrahydro isoquinolinium iodide], the inhibition at 0.01 µM is 17% and the inhibition at 0.1 µM was 19.6%.
The matching figures for `CN1CCc2cc(NS(=O)(=O)c3cccc4ccccc34)ccc2C1` [Example 3, Naphthalene-1-sulfonic acid (2-methyl-1,2,3,4-tetrahydro-isoquinolin-6-yl)-amide hydrochloride]: 3.9% and 18.2%.
The matching figures for `Cc1c(S(=O)(=O)Nc2ccc3c(c2)CCNC3)sc2ccc(Cl)cc12` [Example 4, 5-Chloro-3-methyl-benzo[b]thiophene-2-sulfonic acid (1,2,3,4-tetrahydro-isoqui-nolin-6-yl)-amide hydrochloride]: 27.3% and 71.1%.
`Cc1c(S(=O)(=O)Nc2ccc3c(c2)CCN(C)C3)sc2ccc(Cl)cc12` [Example 5, 5-Chloro-3-methyl-benzo[b]thiophene-2-sulfonic acid (2-methyl-1,2,3,4-tetrahydro-isoquinolin-6-yl)-amide hydrochloride]: the inhibition at 0.01 µM stood at 25.9%, the inhibition at 0.1 µM came out at 76.3% and the Ki amounted to 79.8 nM.
The matching figures for `Cc1ccc(S(=O)(=O)Nc2ccc3c(c2)CCNC3)c2ccccc12` [Example 6, 4-Methyl-naphthalene-1-sulfonic acid (1,2,3,4-tetrahydro-isoquinolin-6-yl)amide hydrochloride]: 60.1%, 88.8% and 14.5 ± 3.8 nM.
The matching figures for `Cc1ccc(S(=O)(=O)Nc2ccc3c(c2)CCN(C)C3)c2ccccc12` [Example 7, 4-Methyl-naphthalene-1-sulfonic acid (2-methyl-1,2,3,4-tetrahydro-isoqui-nolin-6-yl)amide hydrochloride]: 80.3%, 92.2% and 13.3 nM.
In the case of `O=S(=O)(Nc1ccc2c(c1)CCNC2)c1ccc2ccccc2c1` [Example 8, Naphthalene-2-sulfonic acid (1,2,3,4-tetrahydro-isoquinolin-6-yl)-amide hydrochloride], the inhibition at 0.01 µM was found to be 37.4% and the inhibition at 0.1 µM was 74.6%.
For `CN1CCc2cc(NS(=O)(=O)c3ccc4ccccc4c3)ccc2C1` [Example 9, Naphthalene-2-sulfonic acid (2-methyl-1,2,3,4-tetrahydro-isoquinolin-6-yl)-amide hydrochloride], the inhibition at 0.01 µM was 60.1%, the inhibition at 0.1 µM was 86.5% and the Ki was found to be 9.2 ± 1.2 nM.
As for `O=S(=O)(Nc1ccc2c(c1)CCNC2)c1c(Cl)nc2sccn12` [Example 10, 6-Chloro-imidazo[2,1-b] thiazole-5-sulfonic acid (1,2,3,4,- tetrahydro-isoquinolin-6-yl)-amide hydrochloride], the inhibition at 0.01 µM stood at 85.8%, the inhibition at 0.1 µM is 94.6% and the Ki was found to be 1.3 ± 0.12 nM.
The matching figures for `CC(C)(C)OC(=O)N1CCc2cc(NS(=O)(=O)c3cccc4ccccc34)ccc2C1` [Example 13, 6-(Naphthalene-1-sulfonylamino)-3,4-dihydro-1H-isoquinoline-2-carboxylic acid tert-butyl ester]: 30.7%, 28.8% and 1.3 nM.
In the case of `Cc1c(S(=O)(=O)Nc2ccc3c(c2)CCN(C(=O)OC(C)(C)C)C3)sc2ccc(Cl)cc12` [Example 14, 6-(5-Chloro-3-methyl-benzo[b]thiophene-2-sulfonylamino)-3,4-dihydro-1H-isoquinoline-2-carboxylic acid tert-butyl ester], the inhibition at 0.01 µM is -7.3% and the inhibition at 0.1 µM was -3%.
With `Cc1ccc(S(=O)(=O)Nc2ccc3c(c2)CCN(C(=O)OC(C)(C)C)C3)c2ccccc12` [Example 15, 6-(4-Methyl-naphthalene-1-sulfonylamino)-3,4-dihydro-1H-isoquinoline-2-carboxylic acid tert-butyl ester], the inhibition at 0.01 µM was -5% and the inhibition at 0.1 µM is 8.2%.
As to `CC(C)(C)OC(=O)N1CCc2cc(NS(=O)(=O)c3ccc4ccccc4c3)ccc2C1` [Example 16, 6-(Naphthalene-2-sulfonylamino)-3,4-dihydro-1H-isoquinoline-2-carboxylic acid tert-butyl ester], the inhibition at 0.01 µM came out at 5.6% and the inhibition at 0.1 µM turned out to be 10.6%.
`COc1ccc(C)cc1S(=O)(=O)Nc1ccc2c(c1)CCN(C(=O)OC(C)(C)C)C2` [Example 17, 6-(2-Methoxy-5-methyl-benzenesulfonylamino)-3,4-dihydro-1H-isoquinoline-2-carboxylic acid tert-butyl ester]: the inhibition at 0.01 µM is -1.3% and the inhibition at 0.1 µM is -2%.
`CC(C)(C)OC(=O)N1CCc2cc(NS(=O)(=O)c3cccnc3)ccc2C1` [Example 18, 6-(Pyridine-3-sulfonylamino)-3,4-dihydro-1H-isoquinoline-2-carboxylic acid tert-butyl ester]: the inhibition at 0.01 µM was -0.8% and the inhibition at 0.1 µM turned out to be 6.8%.
For the compound `CN1CCc2cc(NS(=O)(=O)c3c(Cl)nc4sccn34)ccc2C1` [Example 19, 6-Chloro-imidazo[2,1-b]thiazole-5-sulfonic acid (2-methyl-1,2,3,4tetrahydro-isoquinolin-6-yl)-amide hydrochloride], the inhibition at 0.01 µM was 74.2%, the inhibition at 0.1 µM turned out to be 90% and the Ki stood at 2.3 ± 0.2 nM.
Consider `O=S(=O)(Nc1ccc2c(c1)CCNC2)c1ccccc1-c1ccccc1` [Example 22, Biphenyl-2-sulfonic acid (1,2,3,4-tetrahydro-isoquinolin-6-yl)-amide hydrochloride], for which the inhibition at 0.01 µM amounted to 79.7%, the inhibition at 0.1 µM stood at 90.8% and the Ki came to 12.3 ± 6 nM.
For `O=S(=O)(Nc1ccc2c(c1)CCNC2)c1cc2ccccc2s1` [Example 24, Benzo[b]thiophene-2-sulfonic acid (1,2,3,4-tetrahydro-isoquinolin-6-yl)-amide hydrochloride], the inhibition at 0.01 µM was 53.6%, the inhibition at 0.1 µM was 86.8% and the inhibition constant (Ki) is 12.6 ± 1.1 nM.
As for `O=S(=O)(Nc1ccc2c(c1)CCNC2)c1csc2ccccc12` [Example 29, Benzo[b]thiophene-3-sulfonic acid (1,2,3,4-tetrahydro-isoquinolin-6-yl)-amide hydrochloride], the inhibition at 0.01 µM was determined as 88%, the inhibition at 0.1 µM came to 89.6% and the inhibition constant (Ki) came to 5.3 ± 0.4 nM.
`O=S(=O)(Nc1ccc2c(c1)CCNC2)c1ccc(F)c2ccccc12` [Example 30, 4-Fluoro-naphthalene-1-sulfonic acid (1,2,3,4-tetrahydro-isoquinolin-6-yl)-amide hydrochloride]: the inhibition at 0.01 µM was 63.2%, the inhibition at 0.1 µM is 85.2% and the Ki was 7.8 ± 0.1 nM.
